Measured values published in patent US10888547B2, “Amorphous and a crystalline form of genz 112638 hemitartrate as inhibitor of glucosylceramide synthase” (Genzyme Corporation, priority 2009, dated 2021).

Legend:
maltase = assay: Intestinal glycosidase assay in rat tissue homogenates; format: biochemical
Experimental: (§1) The specificity of Formula (I) Hemitartrate was evaluated in a series of in vitro cell-based and cell-free assays. The intestinal glycosidase enzymes were assayed in rat tissue homogenates (see U. Andersson, et al., Biochem. Pharm. 59 (2000) 821-829, the entire teachings of which are incorporated herein by reference), and the glycogen debranching enzyme was assayed in a cell free assay as described (see U. Andersson, et al., Biochem. Pharm. 67 (2004) 697-705, the entire teachings of which are incorporated herein by reference).

sucrase = target: T1, sucrase (Rattus norvegicus, UniProt P23739); assay: as above; format: biochemical
T1 construct: The intestinal glycosidase enzymes were assayed in rat tissue homogenates; from tissue; host or cells: rat intestinal tissue homogenate
T1 sequence (P23739 whole entry): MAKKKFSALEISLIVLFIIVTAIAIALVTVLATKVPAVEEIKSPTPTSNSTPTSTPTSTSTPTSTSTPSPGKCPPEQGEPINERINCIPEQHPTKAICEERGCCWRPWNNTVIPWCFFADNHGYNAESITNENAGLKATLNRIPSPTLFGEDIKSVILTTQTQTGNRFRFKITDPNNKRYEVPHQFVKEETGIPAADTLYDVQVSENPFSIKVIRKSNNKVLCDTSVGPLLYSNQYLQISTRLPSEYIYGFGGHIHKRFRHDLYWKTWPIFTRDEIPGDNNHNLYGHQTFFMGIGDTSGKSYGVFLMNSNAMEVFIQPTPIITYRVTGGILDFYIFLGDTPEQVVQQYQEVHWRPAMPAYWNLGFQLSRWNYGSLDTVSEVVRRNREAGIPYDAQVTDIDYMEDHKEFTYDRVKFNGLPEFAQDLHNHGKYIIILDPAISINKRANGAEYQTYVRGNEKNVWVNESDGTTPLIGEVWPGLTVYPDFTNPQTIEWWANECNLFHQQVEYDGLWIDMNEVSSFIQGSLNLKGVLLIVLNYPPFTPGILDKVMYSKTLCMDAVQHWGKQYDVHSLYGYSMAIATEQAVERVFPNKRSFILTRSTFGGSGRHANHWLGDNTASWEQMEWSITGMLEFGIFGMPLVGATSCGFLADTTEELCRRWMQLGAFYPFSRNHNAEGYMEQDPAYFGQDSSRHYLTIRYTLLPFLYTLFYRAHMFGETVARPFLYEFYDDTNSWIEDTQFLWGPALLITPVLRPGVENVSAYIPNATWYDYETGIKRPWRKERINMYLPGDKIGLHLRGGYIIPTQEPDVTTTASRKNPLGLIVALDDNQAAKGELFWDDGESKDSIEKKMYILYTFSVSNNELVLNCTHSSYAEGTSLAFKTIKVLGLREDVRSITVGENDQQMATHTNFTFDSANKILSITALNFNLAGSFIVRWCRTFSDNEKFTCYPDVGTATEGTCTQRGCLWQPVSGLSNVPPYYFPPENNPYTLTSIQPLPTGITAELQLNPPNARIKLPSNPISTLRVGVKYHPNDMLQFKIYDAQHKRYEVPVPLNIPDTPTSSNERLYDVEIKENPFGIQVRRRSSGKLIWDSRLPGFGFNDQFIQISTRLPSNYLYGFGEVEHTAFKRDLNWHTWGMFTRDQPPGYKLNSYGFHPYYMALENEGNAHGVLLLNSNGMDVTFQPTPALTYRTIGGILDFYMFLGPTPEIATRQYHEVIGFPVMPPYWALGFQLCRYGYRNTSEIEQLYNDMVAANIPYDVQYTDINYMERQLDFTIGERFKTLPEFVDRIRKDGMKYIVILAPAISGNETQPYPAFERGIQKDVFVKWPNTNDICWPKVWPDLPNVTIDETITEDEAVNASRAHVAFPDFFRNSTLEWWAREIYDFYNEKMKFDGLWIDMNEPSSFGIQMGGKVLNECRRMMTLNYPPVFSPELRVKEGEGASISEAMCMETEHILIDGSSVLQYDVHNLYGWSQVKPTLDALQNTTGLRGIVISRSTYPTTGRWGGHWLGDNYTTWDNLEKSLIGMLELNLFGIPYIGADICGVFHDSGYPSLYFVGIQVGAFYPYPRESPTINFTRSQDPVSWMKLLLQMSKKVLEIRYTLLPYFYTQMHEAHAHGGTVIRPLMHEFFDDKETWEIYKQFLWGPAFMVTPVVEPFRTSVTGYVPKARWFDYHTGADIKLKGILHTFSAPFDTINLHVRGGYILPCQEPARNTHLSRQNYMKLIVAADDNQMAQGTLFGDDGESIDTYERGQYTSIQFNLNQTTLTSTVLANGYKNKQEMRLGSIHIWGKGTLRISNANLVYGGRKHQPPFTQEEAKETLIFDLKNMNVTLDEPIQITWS
Experimental: as §1

lactase = target: T2, lactase (Rattus norvegicus, UniProt Q02401); assay: as above; format: biochemical; conditions: concentrations up to 2500 μM
T2 construct: The intestinal glycosidase enzymes were assayed in rat tissue homogenates; from tissue; host or cells: rat intestinal tissue homogenate
T2 sequence (Q02401 868-1928): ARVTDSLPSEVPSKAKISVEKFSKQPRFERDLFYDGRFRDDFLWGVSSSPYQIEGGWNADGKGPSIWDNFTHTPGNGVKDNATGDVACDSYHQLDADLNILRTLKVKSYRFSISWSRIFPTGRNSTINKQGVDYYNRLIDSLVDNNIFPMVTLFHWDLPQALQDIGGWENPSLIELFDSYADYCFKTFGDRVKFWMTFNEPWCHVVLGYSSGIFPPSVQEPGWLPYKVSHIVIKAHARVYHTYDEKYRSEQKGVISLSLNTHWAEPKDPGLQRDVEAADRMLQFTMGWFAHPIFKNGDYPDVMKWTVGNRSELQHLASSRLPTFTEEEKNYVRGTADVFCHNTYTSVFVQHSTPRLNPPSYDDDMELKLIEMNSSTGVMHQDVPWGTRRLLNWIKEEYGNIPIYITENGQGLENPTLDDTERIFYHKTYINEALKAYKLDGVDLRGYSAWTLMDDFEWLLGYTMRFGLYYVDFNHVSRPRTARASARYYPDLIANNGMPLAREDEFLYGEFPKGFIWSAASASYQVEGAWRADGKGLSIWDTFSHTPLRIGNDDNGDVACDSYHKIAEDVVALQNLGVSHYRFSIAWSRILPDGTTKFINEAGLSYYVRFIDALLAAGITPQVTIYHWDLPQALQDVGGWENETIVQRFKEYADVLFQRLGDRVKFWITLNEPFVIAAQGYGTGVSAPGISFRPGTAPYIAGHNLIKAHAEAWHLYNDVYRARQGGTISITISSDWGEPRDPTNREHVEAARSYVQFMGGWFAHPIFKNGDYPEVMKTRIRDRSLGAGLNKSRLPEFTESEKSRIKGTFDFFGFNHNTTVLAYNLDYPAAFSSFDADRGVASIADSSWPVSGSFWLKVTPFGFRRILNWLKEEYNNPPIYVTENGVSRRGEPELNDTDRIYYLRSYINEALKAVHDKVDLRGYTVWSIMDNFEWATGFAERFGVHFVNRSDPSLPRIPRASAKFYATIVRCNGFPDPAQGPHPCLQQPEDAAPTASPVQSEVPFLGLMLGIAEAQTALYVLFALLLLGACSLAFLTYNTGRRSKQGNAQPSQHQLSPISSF
Experimental: as §1

Fabry-Rag mice = assay: Combination ERT/SRT therapy of Fabry-Rag mice; format: in vivo, mouse; conditions: ERT 1 mg/kg α-galactosidase A i.v., SRT 300 mg/kg daily in diet
Experimental: For the combination therapy studies, Fabry-Rag mice were put on study at 3 months old (treatment model). Mice in group A received intravenous injections of recombinant human alpha-galactosidase A (Genzyme Corp.) at a dose of 1 mg/kg every 2 months (i.e. 3, 5, 7 and 9 months old). Group B received the same intravenous enzyme doses plus it received Formula (I) Hemitartrate (Genzyme Corp., Cambridge, Mass.) as a component of the pellet food diet. The drug was formulated at 0.15% (w/w) in standard 5053 mouse chow (TestDiet, Richmond, Ind.) and provided ad libitum. […] Group C received enzyme injections every 4 months (i.e. 3 and 7 months old) and was on the same drug-in-food diet as group B. Group D received only the drug-in-food diet (same as groups B and C). Group E was untreated Fabry-Rag mice and group F were wild-type controls.
Quantitation of GL-3 was by Tandem Mass Spectrometry essentially as for GL-1.
Hot plate Assay was performed as described previously (Ziegler, R J et al. Molec. Ther. 15(3), 492-500 (2007).
Beginning at three-months of age, the mice were subjected to a schedule of behavioral tests (i.e. hot-plate assay) and biochemical tests (i.e., GL-3 level analysis in tissues/blood/urine), as shown in FIG. 10.

α-glucosidase I and II = assay: α-Glucosidase I and II specificity assay; format: biochemical
[1] = target: glycogen debranching enzyme (α-1,6-glucosidase) (Homo sapiens, UniProt P35573); assay: Glycogen debranching enzyme cell free assay; format: biochemical
Sequence of glycogen debranching enzyme (α-1,6-glucosidase) (P35573 whole entry, species assumed): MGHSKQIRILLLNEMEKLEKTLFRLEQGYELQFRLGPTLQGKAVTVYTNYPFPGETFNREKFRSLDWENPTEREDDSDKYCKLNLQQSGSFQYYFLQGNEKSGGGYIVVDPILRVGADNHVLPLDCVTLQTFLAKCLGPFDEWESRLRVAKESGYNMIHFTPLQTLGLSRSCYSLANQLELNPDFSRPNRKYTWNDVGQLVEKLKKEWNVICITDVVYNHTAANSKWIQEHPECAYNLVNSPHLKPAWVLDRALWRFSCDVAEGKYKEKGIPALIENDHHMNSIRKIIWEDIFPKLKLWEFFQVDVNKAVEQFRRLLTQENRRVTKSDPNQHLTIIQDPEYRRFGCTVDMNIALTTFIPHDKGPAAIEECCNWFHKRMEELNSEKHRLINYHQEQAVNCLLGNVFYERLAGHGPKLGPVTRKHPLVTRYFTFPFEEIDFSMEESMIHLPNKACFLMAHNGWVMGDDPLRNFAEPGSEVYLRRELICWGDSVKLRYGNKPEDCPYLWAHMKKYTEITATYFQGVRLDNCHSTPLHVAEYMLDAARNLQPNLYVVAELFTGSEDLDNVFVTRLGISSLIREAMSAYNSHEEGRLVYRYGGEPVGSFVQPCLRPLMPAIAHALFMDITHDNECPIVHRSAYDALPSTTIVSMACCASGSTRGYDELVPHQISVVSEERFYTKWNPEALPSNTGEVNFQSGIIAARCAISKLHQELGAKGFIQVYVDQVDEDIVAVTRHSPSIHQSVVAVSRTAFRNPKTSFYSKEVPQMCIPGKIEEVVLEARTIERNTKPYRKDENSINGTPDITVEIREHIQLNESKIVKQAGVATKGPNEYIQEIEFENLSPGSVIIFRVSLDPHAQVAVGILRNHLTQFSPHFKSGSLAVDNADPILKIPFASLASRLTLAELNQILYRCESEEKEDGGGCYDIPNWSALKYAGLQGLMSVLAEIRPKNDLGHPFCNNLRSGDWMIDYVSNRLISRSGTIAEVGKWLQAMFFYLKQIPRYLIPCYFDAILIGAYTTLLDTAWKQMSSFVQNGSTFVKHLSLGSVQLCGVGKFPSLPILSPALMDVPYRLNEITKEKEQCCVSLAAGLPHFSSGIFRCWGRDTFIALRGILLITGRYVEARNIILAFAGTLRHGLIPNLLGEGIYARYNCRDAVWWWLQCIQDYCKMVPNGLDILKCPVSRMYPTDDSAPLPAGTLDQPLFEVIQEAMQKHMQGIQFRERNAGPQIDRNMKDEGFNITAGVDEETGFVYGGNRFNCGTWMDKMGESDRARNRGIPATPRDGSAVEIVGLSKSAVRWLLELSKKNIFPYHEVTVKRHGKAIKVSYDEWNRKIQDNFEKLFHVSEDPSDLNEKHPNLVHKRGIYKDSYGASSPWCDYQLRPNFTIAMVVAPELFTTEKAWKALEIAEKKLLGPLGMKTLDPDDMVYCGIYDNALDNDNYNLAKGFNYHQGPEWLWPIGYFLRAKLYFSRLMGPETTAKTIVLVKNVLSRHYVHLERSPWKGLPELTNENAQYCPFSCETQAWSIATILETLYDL
Experimental: as §1

[2] = Drug interaction study with ketoconazole (CYP3A4 and p-glycoprotein inhibitor) in healthy subjects; format: in vivo, human; conditions: 100 mg twice daily with ketoconazole 400 mg once daily
D409V/null mice = assay: Oral gavage efficacy study in Gaucher D409V/null mice; format: in vivo, mouse
[3] = Hygroscopicity of salts and free base; format: physicochemical
[4] = system: Gaucher disease type 1 (GD1) patients; assay: Phase 2 clinical trial in adults with Gaucher disease type 1; format: in vivo, human; conditions: 50 or 100 mg bid orally
Experimental: Patients were to have splenomegaly (volume […]) and either thrombocytopenia (platelets 45,000-100,000/mm^3) or anemia (hemoglobin 8-10 g/dl, female; 8-11 g/dl, male). None received enzyme replacement or substrate reduction therapy in the prior 12 months. The composite primary efficacy endpoint is […] (+0.5 g/dl) or platelet count (+15%) after 52 weeks of treatment. Liver volume, chitotriosidase, glucosylceramide are also assessed. Patients continue to be treated and monitored long-term.

[5] = mouse, in vivo, po, 150 mg/kg/day

SMILES: CCCCCCCC(=O)N[C@H](CN1CCCC1)[C@H](O)c1ccc2c(c1)OCCO2 [Formula (I) Hemitartrate]
- inhibition of maltase (maltase; concentrations up to 2500 μM): No detectable inhibition
- Ki (maltase; read-out: Enzyme specificities, Ki: Maltase inhibition): > 10 µM
- inhibition of sucrase (sucrase; concentrations up to 2500 μM): No detectable inhibition
- Ki (sucrase; read-out: Enzyme specificities, Ki: Sucrase inhibition): > 10 µM
- inhibition of lactase (lactase): No detectable inhibition
- onset of heat-insensitivity (Fabry-Rag mice): delays onset
- urine GL-3 levels (Fabry-Rag mice): reduces
- blood GL-3 levels (Fabry-Rag mice; from 3 months of age): does not
- inhibition of α-glucosidase I and II (α-glucosidase I and II; concentrations up to 2500 μM): No detectable inhibition
- IC50 (α-glucosidase I and II; read-out: Enzyme specificities, IC50: α-Glucosidase I and II): > 2500 µM
- inhibition of cytosolic debranching enzyme (α-1,6-glucosidase) ([1]; concentrations up to 2500 μM): No detectable inhibition
- IC50 ([1]; read-out: Enzyme specificities, IC50: Glycogen debranching enzyme): > 2500 µM
- increase in exposure of the free base in plasma at steady state with ketoconazole [2]: 4 fold
- gastro-intestinal issues (D409V/null mice; effective dose of 150 mg/kg/day): no observable gastro-intestinal issues
- glucosylceramide levels versus age-matched vehicle-treated controls (D409V/null mice; mouse, in vivo): dose-dependent reduction
- body weight versus untreated mice (D409V/null mice; [5]): no significant deviation
- effects on well-being or feeding habits (D409V/null mice; [5]): no notable effects
- frequency of Gaucher cells in the liver versus untreated mice (D409V/null mice; [5]): significantly lower
- glucosylceramide levels in liver, % lower than in vehicle-treated mice (D409V/null mice; [5]): 60%
- glucosylceramide levels in liver, lung and spleen versus start of the study (D409V/null mice; [5]): had not increased
- glucosylceramide levels in lung, % lower than in vehicle-treated mice (D409V/null mice; [5]): 50%
- glucosylceramide levels in spleen, % lower than in vehicle-treated mice (D409V/null mice; [5]): 40%
- glucosylceramide levels in the liver, % of those in the controls (D409V/null mice; [5]): 60%
- glucosylceramide levels in the lung, % of those in the controls (D409V/null mice; [5]): 40%
- glucosylceramide levels in the spleen, % of those in the controls (D409V/null mice; [5]): 75%
- Hygroscopicity (40° C./75% RH) ([3]; 40° C./75% RH): None
- hygroscopicity of the solid salt ([3]; salt screen, Example 1, listed as hemitartrate (1 salt: 2 Formula I)): non-hygroscopic
- tolerability and safety profile [4]: well tolerated
- composite primary endpoint met (hemoglobin +0.5 g/dl or platelet count +15%) ([4]; 52 weeks): 19 of the 20
- mean (SD) change from baseline in chitotriosidase ([4]; Week 52): -49.9%
- mean (SD) change from baseline in liver volume (multiples of normal) ([4]; Week 52): -15.8%
- mean (SD) change from baseline in platelet count ([4]; Week 52): +43.6% (137.59%)
- mean (SD) change from baseline in spleen volume (multiples of normal) ([4]; Week 52): -40.2%
- related adverse events ([4]; all mild and transient): Seven related adverse events in 6 patients
- time after which plasma glucosylceramide levels normalized ([4]; all patients): 4 weeks
